Active and inactive are the calls of the source. No cut-off for these calls is given here.
What was measured:
Escherichia coli [1] = assay: Antibacterial activity against Escherichia coli ATCC 35218 at 160 uM/ml after 24 hrs by kirby-bauer method; assay type: functional; settings: ATCC 35218, 24 h, read-out: IZ
Escherichia coli [2] = assay: Antibacterial activity against Escherichia coli ATCC 35218 at 80 uM/ml after 24 hrs by kirby-bauer method; assay type: functional; settings: ATCC 35218, 24 h, read-out: IZ
Escherichia coli [3] = assay: Antibacterial activity against Escherichia coli ATCC 35218 at 40 uM/ml after 24 hrs by kirby-bauer method; assay type: functional; settings: ATCC 35218, 24 h, read-out: IZ
Escherichia coli [4] = assay: Antibacterial activity against Escherichia coli ATCC 35218 at 20 uM/ml after 24 hrs by kirby-bauer method; assay type: functional; settings: ATCC 35218, 24 h, read-out: IZ
[5] = tested on: Burkholderia pseudomallei; assay: Antibacterial activity against Burkholderia pseudomallei NTCC 10274 at 160 uM/ml after 24 hrs by kirby-bauer method; assay type: functional; settings: NTCC 10274, 24 h, read-out: IZ
[6] = tested on: Burkholderia pseudomallei; assay: Antibacterial activity against Burkholderia pseudomallei NTCC 10274 at 80 uM/ml after 24 hrs by kirby-bauer method; assay type: functional; settings: NTCC 10274, 24 h, read-out: IZ
[7] = tested on: Burkholderia pseudomallei; assay: Antibacterial activity against Burkholderia pseudomallei NTCC 10274 at 40 uM/ml after 24 hrs by kirby-bauer method; assay type: functional
[8] = tested on: Burkholderia pseudomallei; assay: Antibacterial activity against Burkholderia pseudomallei NTCC 10274 at 20 uM/ml after 24 hrs by kirby-bauer method; assay type: functional
Pseudomonas aeruginosa [9] = assay: Antibacterial activity against Pseudomonas aeruginosa ATCC 15499 at 160 uM/ml after 24 hrs by kirby-bauer method; assay type: functional; settings: ATCC 15499, 24 h, read-out: IZ
Pseudomonas aeruginosa [10] = assay: Antibacterial activity against Pseudomonas aeruginosa ATCC 15499 at 80 uM/ml after 24 hrs by kirby-bauer method; assay type: functional; settings: ATCC 15499, 24 h, read-out: IZ
Pseudomonas aeruginosa [11] = assay: Antibacterial activity against Pseudomonas aeruginosa ATCC 15499 at 40 uM/ml after 24 hrs by kirby-bauer method; assay type: functional; settings: ATCC 15499, 24 h, read-out: IZ
Pseudomonas aeruginosa [12] = assay: Antibacterial activity against Pseudomonas aeruginosa ATCC 15499 at 20 uM/ml after 24 hrs by kirby-bauer method; assay type: functional; settings: ATCC 15499, 24 h, read-out: IZ
Salmonella typhimurium [13] = assay: Antibacterial activity against Salmonella typhimurium ATCC 23564 at 160 uM/ml after 24 hrs by kirby-bauer method; assay type: functional
Staphylococcus aureus [14] = assay: Antibacterial activity against Staphylococcus aureus ATCC 11632 at 160 uM/ml after 24 hrs by kirby-bauer method; assay type: functional; settings: ATCC 11632, 24 h, read-out: IZ
Staphylococcus aureus [15] = assay: Antibacterial activity against Staphylococcus aureus ATCC 11632 at 80 uM/ml after 24 hrs by kirby-bauer method; assay type: functional; settings: ATCC 11632, 24 h, read-out: IZ
Staphylococcus aureus [16] = assay: Antibacterial activity against Staphylococcus aureus ATCC 11632 at 40 uM/ml after 24 hrs by kirby-bauer method; assay type: functional
Staphylococcus aureus [17] = assay: Antibacterial activity against Staphylococcus aureus ATCC 11632 at 20 uM/ml after 24 hrs by kirby-bauer method; assay type: functional
Aspergillus niger [18] = assay: Antifungal activity against Aspergillus niger MTCC 1108 at 160 uM/ml after 48 hrs by paper disc diffusion method; assay type: functional
Aspergillus niger [19] = assay: Antifungal activity against Aspergillus niger MTCC 1108 at 80 uM/ml after 48 hrs by paper disc diffusion method; assay type: functional; settings: MTCC 1108, 48 h, read-out: IZ
Aspergillus niger [20] = assay: Antifungal activity against Aspergillus niger MTCC 1108 at 40 uM/ml after 48 hrs by paper disc diffusion method; assay type: functional; settings: MTCC 1108, 48 h, read-out: IZ
Aspergillus niger [21] = assay: Antifungal activity against Aspergillus niger MTCC 1108 at 20 uM/ml after 48 hrs by paper disc diffusion method; assay type: functional
Aspergillus flavus [22] = assay: Antifungal activity against Aspergillus flavus MTCC 1021 at 160 uM/ml after 48 hrs by paper disc diffusion method; assay type: functional
Aspergillus flavus [23] = assay: Antifungal activity against Aspergillus flavus MTCC 1021 at 80 uM/ml after 48 hrs by paper disc diffusion method; assay type: functional; settings: MTCC 1021, 48 h, read-out: IZ
Aspergillus flavus [24] = assay: Antifungal activity against Aspergillus flavus MTCC 1021 at 40 uM/ml after 48 hrs by paper disc diffusion method; assay type: functional; settings: MTCC 1021, 48 h, read-out: IZ
Aspergillus flavus [25] = assay: Antifungal activity against Aspergillus flavus MTCC 1021 at 20 uM/ml after 48 hrs by paper disc diffusion method; assay type: functional; settings: MTCC 1021, 48 h, read-out: IZ
Curvularia lunata [26] = assay: Antifungal activity against Curvularia lunata MTCC 581 at 160 uM/ml after 48 hrs by paper disc diffusion method; assay type: functional; settings: MTCC 581, 48 h, read-out: IZ
Curvularia lunata [27] = assay: Antifungal activity against Curvularia lunata MTCC 581 at 80 uM/ml after 48 hrs by paper disc diffusion method; assay type: functional; settings: MTCC 581, 48 h, read-out: IZ
Curvularia lunata [28] = assay: Antifungal activity against Curvularia lunata MTCC 581 at 40 uM/ml after 48 hrs by paper disc diffusion method; assay type: functional
Curvularia lunata [29] = assay: Antifungal activity against Curvularia lunata MTCC 581 at 20 uM/ml after 48 hrs by paper disc diffusion method; assay type: functional
Trichoderma viride [30] = assay: Antifungal activity against Trichoderma viride MTCC 1107 at 160 uM/ml after 48 hrs by paper disc diffusion method; assay type: functional; settings: MTCC 1107, 48 h, read-out: IZ
Trichoderma viride [31] = assay: Antifungal activity against Trichoderma viride MTCC 1107 at 80 uM/ml after 48 hrs by paper disc diffusion method; assay type: functional; settings: MTCC 1107, 48 h, read-out: IZ
Trichoderma viride [32] = assay: Antifungal activity against Trichoderma viride MTCC 1107 at 40 uM/ml after 48 hrs by paper disc diffusion method; assay type: functional; settings: MTCC 1107, 48 h, read-out: IZ
Trichoderma viride [33] = assay: Antifungal activity against Trichoderma viride MTCC 1107 at 20 uM/ml after 48 hrs by paper disc diffusion method; assay type: functional; settings: MTCC 1107, 48 h, read-out: IZ
QG-56 = assay: Cytotoxicity against human QG56 cells after 48 hrs by MTT assay; assay type: functional, cell-based
Salmonella typhimurium [34] = assay: Antibacterial activity against Salmonella typhimurium ATCC 23564 at 80 uM/ml after 24 hrs by kirby-bauer method; assay type: functional; settings: Salmonella enterica subsp. enterica serovar Typhimurium
Salmonella typhimurium [35] = assay: Antibacterial activity against Salmonella typhimurium ATCC 23564 at 40 uM/ml after 24 hrs by kirby-bauer method; assay type: functional; settings: Salmonella enterica subsp. enterica serovar Typhimurium
Salmonella typhimurium [36] = assay: Antibacterial activity against Salmonella typhimurium ATCC 23564 at 20 uM/ml after 24 hrs by kirby-bauer method; assay type: functional; settings: Salmonella enterica subsp. enterica serovar Typhimurium

Row | Structure (SMILES) | zone of inhibition at 160 µM (Escherichia coli [1]) | zone of inhibition at 80 µM (Escherichia coli [2]) | zone of inhibition at 40 µM (Escherichia coli [3]) | zone of inhibition at 20 µM (Escherichia coli [4]) | zone of inhibition at 160 µM [5] | zone of inhibition at 80 µM [6] | zone of inhibition at 160 µM (Pseudomonas aeruginosa [9]) | zone of inhibition at 80 µM (Pseudomonas aeruginosa [10]) | zone of inhibition at 40 µM (Pseudomonas aeruginosa [11]) | zone of inhibition at 20 µM (Pseudomonas aeruginosa [12]) | zone of inhibition at 160 µM (Staphylococcus aureus [14]) | zone of inhibition at 80 µM (Staphylococcus aureus [15]) | inhibition zone (IZ) (Staphylococcus aureus [16]) | inhibition zone (IZ) (Staphylococcus aureus [17]) | zone of inhibition at 160 µM (Curvularia lunata [26]) | zone of inhibition at 80 µM (Curvularia lunata [27]) | zone of inhibition at 160 µM (Trichoderma viride [30]) | zone of inhibition at 80 µM (Trichoderma viride [31]) | zone of inhibition (Trichoderma viride [32]) | zone of inhibition at 20 µM (Trichoderma viride [33]) | further results
1 | COc1cc(/C=C/C(=O)C2=C(/C=C/c3ccc(O)c(OC)c3)NC(=S)NC2c2ccc(O)cc2)ccc1O (centres undefined) | 22 mm | 18 mm | 17 mm | 13 mm | 19 mm | 17 mm | 18 mm | 14 mm | 12 mm | 9 mm | 12 mm | 10 mm | inactive | inactive | 24 mm | 22 mm | 20 mm | 17 mm | 14 mm | 11 mm | zone of inhibition at 40 µM ([7]; NTCC 10274, 24 h, read-out: IZ): 16 mm; zone of inhibition at 20 µM ([8]; NTCC 10274, 24 h, read-out: IZ): 14 mm; inhibition zone (IZ) (Salmonella typhimurium [13]; Salmonella enterica subsp. enterica serovar Typhimurium): inactive; zone of inhibition at 160 µM (Aspergillus niger [18]; MTCC 1108, 48 h, read-out: IZ): 14 mm; zone of inhibition at 80 µM (Aspergillus niger [19]): 11 mm; zone of inhibition at 40 µM (Aspergillus niger [20]): 9 mm; inhibition zone (IZ) (Aspergillus niger [21]): inactive; zone of inhibition at 160 µM (Aspergillus flavus [22]; MTCC 1021, 48 h, read-out: IZ): 15 mm; zone of inhibition at 80 µM (Aspergillus flavus [23]): 13 mm; zone of inhibition at 40 µM (Aspergillus flavus [24]): 11 mm; zone of inhibition at 20 µM (Aspergillus flavus [25]): 9 mm; zone of inhibition at 40 µM (Curvularia lunata [28]; MTCC 581, 48 h, read-out: IZ): 21 mm; zone of inhibition at 20 µM (Curvularia lunata [29]; MTCC 581, 48 h, read-out: IZ): 20 mm; IC50 (QG-56): 50 uM/ml; IC50 (HepG2): 100 uM/ml; IC50 (HCT-116): 50 uM/ml
2 | COc1cc(/C=C/C(=O)C2=C(/C=C/c3ccc(O)c(OC)c3)NC(=O)NC2c2ccc([N+](=O)[O-])cc2)ccc1O (centres undefined) | 18 mm | 16 mm | 15 mm | 12 mm | 12 mm | 10 mm | 19 mm | 18 mm | 14 mm | 9 mm | 11 mm | 10 mm | inactive | inactive | 11 mm | 9 mm | 21 mm | 21 mm | 19 mm | 17 mm | inhibition zone (IZ) [7]: inactive; inhibition zone (IZ) [8]: inactive; zone of inhibition at 160 µM (Salmonella typhimurium [13]; Salmonella enterica, ATCC 23564, 24 h, read-out: IZ): 10 mm; inhibition zone (IZ) (Salmonella typhimurium [34]): inactive; inhibition zone (IZ) (Salmonella typhimurium [35]): inactive; inhibition zone (IZ) (Salmonella typhimurium [36]): inactive; inhibition zone (IZ) (Aspergillus niger [18]): inactive; inhibition zone (IZ) (Aspergillus flavus [22]): inactive; inhibition zone (IZ) (Curvularia lunata [28]): inactive; inhibition zone (IZ) (Curvularia lunata [29]): inactive; IC50 (QG-56): 100 uM/ml; IC50 (HepG2): 100 uM/ml; IC50 (HCT-116): 50 uM/ml
